According to US20110250133A1, “GASTRIN […] PEPTIDE COMPOUNDS” (priority 2003, published 2011):
“Also recorded” adds a separate entry of the source.

What was measured:
NMB-R = biological target: T1, NMB-R (Rattus norvegicus, UniProt P24053); assay: Competition with 125I-NMB for NMB-R in C6 cells (linker specificity); type: binding, rodent; conditions: for receptor subtype preference (GRP-R vs NMB-R): from IC50 with 125I-NMB (C6) and 125I-BBN (PC3), cut off 10x the IC50 of [Tyr4]-BBN;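 for all read-outs here: test cells: rodent glioblastoma C6 line carrying NMB-R, human prostate cancer PC3 line carrying GRP-R, affinity fitted by one-site competition nonlinear regression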
T1 construct: C6, an NMB-R expressing rodent glioblastoma cell line; host or cells: C6 glioblastoma cells, intact adherent cells
T1 sequence (P24053 1-390): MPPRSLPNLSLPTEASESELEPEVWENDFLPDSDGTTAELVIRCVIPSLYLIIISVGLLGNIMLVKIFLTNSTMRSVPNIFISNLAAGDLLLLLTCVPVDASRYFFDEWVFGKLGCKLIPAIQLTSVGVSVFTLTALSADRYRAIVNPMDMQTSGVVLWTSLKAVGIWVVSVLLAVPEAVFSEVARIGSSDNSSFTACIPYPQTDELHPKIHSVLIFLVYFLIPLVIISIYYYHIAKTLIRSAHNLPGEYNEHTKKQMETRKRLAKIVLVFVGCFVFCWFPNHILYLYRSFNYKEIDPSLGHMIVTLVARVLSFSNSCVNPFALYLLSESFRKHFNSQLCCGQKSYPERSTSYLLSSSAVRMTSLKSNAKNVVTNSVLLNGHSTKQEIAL
Method: Two cell lines, C6, an NMB-R expressing rodent glioblastoma cell line and PC3, a GRP-R expressing human prostate cancer cell line, were used in this assay. The affinity of various unlabeled compounds for each receptor subtype (NMB-R and GRP-R) was determined indirectly by measuring its ability to compete with the binding of ^125I-NMB or ^125I-BBN to its corresponding receptors in C6 and PC3 cells.
Cells for the assays were plated at a concentration of 9.6×10^4/well in 48 well poly-lysine coated plates (Beckton Dickinson Biocoat). PC3 were obtained from ATCC(CRL-1435) and cultured in RPMI 1640 (ATCC) supplemented with 2 mM L-glutamine, 1.5 g/L Sodium bicarbonate, 10 mM HEPES and 10% FBS. […] PC3 cells for the assays were plated at a concentration of 2.0×10^4 cells/well in 96-well white/clear bottom plates (Falcon Optilux-I). Plates were used for the assays on day 2 of the post-plating.
RPMI 1640 (ATCC) containing 25 mM HEPES, 0.2% BSA fraction V, 1.0 mM AEBSF (CAS # 3087-99-7) and 0.1% Bacitracin (CAS # 1405-87-4), pH 7.4. Custom made ^125I-[Tyr^0]NMB, >2.0 Ci/μmole (Amersham Life Science) [^125I-NMB] and commercially available ^125I-[Tyr^4]BBN, >2.0 Ci/μmole (Perkin Elmer Life Science) [^125I-BBN] were used as radioligands.
Using a 48-well plate assay system (for C6 study) competition experiments were performed using ^125I-NMB. […] Selection of compounds for the assay was based on linker subtype.
The binding parameters obtained from the studies were analyzed using a one-site competition non-linear regression analysis with GraphPad Prism. The relative affinity of various compounds for NMB-R in C6 cells were compared with those obtained using commercially available [Tyr^4]-BBN and [Tyr^0]-NMB. To distinguish the GRP-R preferring compounds from NMB-R plus GRP-R preferring compounds, IC50 values obtained for each compound were compared with those obtained from [Tyr^4-BBN with ^125I-NMB on C6 cells.

GRP-R = biological target: T2, GRP-R (Homo sapiens, UniProt P30550); assay: Competition studies of modified BBN analogs with 125I-BBN for GRP-R in PC3 cells (Example LXI); type: binding
T2 construct: host or cells: PC3 (PC-3) human prostate cancer cells, intact adherent cells
T2 sequence (P30550 whole entry): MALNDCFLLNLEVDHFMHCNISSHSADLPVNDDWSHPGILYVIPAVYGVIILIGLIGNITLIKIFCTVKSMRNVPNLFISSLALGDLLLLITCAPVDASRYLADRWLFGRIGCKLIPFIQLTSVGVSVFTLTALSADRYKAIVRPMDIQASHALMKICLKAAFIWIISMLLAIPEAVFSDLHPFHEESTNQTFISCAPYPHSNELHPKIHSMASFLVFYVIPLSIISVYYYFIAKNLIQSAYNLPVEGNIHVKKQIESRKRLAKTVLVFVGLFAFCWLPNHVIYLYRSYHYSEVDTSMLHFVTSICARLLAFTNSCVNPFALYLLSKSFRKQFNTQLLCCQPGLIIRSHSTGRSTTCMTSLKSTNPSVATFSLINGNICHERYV
Method: PC3 cell lines were obtained from ATCC(CRL-1435) and cultured in RPMI 1640 (ATCC) supplemented with 2 mM L-glutamine, 1.5 g/L Sodium bicarbonate, 10 mM HEPES and 10% FBS. […] PC3 cells for the assays were plated at a concentration of 2.0×10^4 cells/well in a 96-well white/clear bottom plates (Falcon Optilux-I). Plates were used for the assays on day 2 of the post-plating.
^125I-BBN (Cat # NEX258) was obtained from PerkinElmer Life Sciences.
All compounds tested were dissolved in binding buffer and appropriate dilutions were also done in binding buffer. PC3 cells for assay were seeded at a concentration of 2.0×10^4/well either in 96-well black/clear collagen I cellware plates (Beckton Dickinson Biocoat). Plates were used for binding studies on day 2 post-plating. The plates were checked for confluency (>90% confluent) prior to assay. […] The studies were conducted with an assay volume of 75 μL per well. Triplicate wells were used for each data point. After the addition of the appropriate solutions, plates were incubated for 1 hour at 4° C. Incubation was ended by the addition of 200 μL of ice-cold incubation buffer. Plates were washed 5 times and blotted dry. Radioactivity was detected using either a LKB CompuGamma counter or a microplate scintillation counter.

[1] = test system: T47D human breast cancer cells; assay: Effect of drug treatment on GRP receptor binding (177Lu-AMBA) in T47D cells; type: cell-based; conditions: for decrease in 177Lu-AMBA binding (GRP receptor specific signal per cell) / increase in 177Lu-AMBA binding (GRP receptor specific signal per cell): relative to untreated control; for decrease in 177Lu-AMBA binding (GRP receptor specific signal per cell): drug 0.1-1.0 μM (4-OH Tamoxifen 0.001-0.1 μM); for increase in 177Lu-AMBA binding (GRP receptor specific signal per cell): drug 0.1-1.0 μM (gefitinib 0.1-10 μM)
Source text: T-47D breast cancer cells (human metastatic mammary gland ductal adenocarcinoma isolated from pleural effusion, ER+, PR+) were obtained from the American Type Culture Collection.

[2] = test system: PC-3 prostate cancer cells; assay: Effect of drug treatment on GRP receptor binding (177Lu-AMBA) in PC-3 cells; type: cell-based, human; conditions: for decrease in 177Lu-AMBA binding (GRP receptor specific signal per cell) / increase in 177Lu-AMBA binding (GRP receptor specific signal per cell): relative to untreated control; for decrease in 177Lu-AMBA binding (GRP receptor specific signal per cell): drug 0.1-1.0 μM (gefitinib 0.1-10 μM)
Method: (§1) RPMI 1640 supplemented with 20 mM HEPES, 0.1% BSA (w/v), 0.5 mM PMSF (AEBSF), bacitracin (50 mg/500 ml), pH 7.4.
(§2) Incubations were stopped by the addition of 200 μL of ice-cold binding buffer. Plates were washed three more times with binding buffer, 140 μL of scintillation fluid was added to each well, the plates were sealed and analyzed on a Microβ plate reader (Microbeta Trilux, Perkin-Elmer).
PC-3 (human prostate adenocarcinoma, bone metastasis, AR-, ER) were obtained from the American Type Culture Collection. The growth medium for PC-3 cells is RPMI 1640 (10-041-CM, Mediatech, Inc), supplemented with 10% heat inactivated FBS (Hyclone, SH30070.03) and PSF-1× (as in Example LXVI). The binding buffer, lapatinib solutions, treatment method and cell binding assay is the same as in Example LXVI.

[3] = test system: BT-474 human breast cancer cells; assay: Effect of drug treatment on GRP receptor binding (177Lu-AMBA) in BT-474 cells; type: cell-based; conditions: for change in GRP receptor specific signal per cell (177Lu-AMBA binding): drug 0.1-1.0 μM (gefitinib 0.1-10 μM); for change in 177Lu-AMBA uptake (GRP-R) on a viable cell basis, BT-474: ↑ increase, ↓ decrease vs untreated; for decrease in 177Lu-AMBA binding (GRP receptor specific signal per cell): drug 0.1-1.0 μM (4-OH Tamoxifen 0.001-0.1 μM)
Method: BT-474 breast cancer cells (human primary invasive ductal carcinoma; ER+, PR+, amplified HER2/neu+) were obtained from the American Type Culture Collection. The growth medium for BT-474 cells is Hybri-care Medium (Cat No: 46X, ATCC) supplemented with 10% heat inactivated FBS (Hyclone, SH30070.03), 0.2% NaHCO3, and antibiotic/antimycotic “PSF-1×” (GibcoBRL, 15240-062) for a final concentration of penicillin-streptomycin (1×, 100 units/mL), and fungizone (0.25 μg/mL). […] Cells for binding experiments were plated on Day 0 at 5.6×10^4 cells/cm^2 in 96-well white/clear bottom microtiter plates (Falcon Optilux-I), or 96 well black/clear collagen I cellware plates (Beckton Dickinson Biocoat).
as §1, §2
Treatment: BT-474 cells were plated on Day 0 and treated on Days 1 and 2 (DT1, DT2).

[4] = test system: PC-3 prostate cancer cells; assay: Effect of dasatinib on GRP receptor binding, proliferation and glucose uptake in PC-3 cells (single plate assay); type: cell-based, human; conditions: for % Change in 2-NBDG uptake / % change in 177Lu-AMBA uptake / % Change in Proliferation / 177Lu-AMBA uptake (Bmax fmoles/million cells): PC3 cells; for % Change in Proliferation: N = 4; for 177Lu-AMBA uptake (Bmax fmoles/million cells): control 266 (±23)
Method: The cells were plated on Day 0 (7.5 k/well 96-well PE Scintiplate). […] To determine the cell numbers and the proliferation, 100 uL of 10% CCK—F solution in DPBS (Molecular technologies) was added to the same plate, incubated for 30 min at 37° C. and the relative fluorescence (RFU) measured at 535 nm. Base on the cell numbers and the ^177Lu-binding, the Bmax (fmoles bound/million cells) was calculated, and the results compared with the control.
For the glucose uptake study, a fluorescently labeled 2-deoxyglucose derivative (2-NBDG) was used. After the dasatinib treatment as described above, the cells were incubated with 2-NBDG (200 uM) in binding buffer for 2 h at 37° C. and measured RFU at 530 nm. The cell numbers were determined using CCK—F as described above. Based on the cell numbers Bmax for glucose uptake was determined and compared with the control.

[5] = BT-474, relative to untreated control
[6] = drug 0.1-1.0 μM, ↑ increase, ↓ decrease vs untreated

Question: What does the source list for “N-[(3β,5β,12α)-3-[[[4,7,10-Tris(carboxymethyl)-1,4,7,10-tetraazacyclododec-1-yl]acetyl]amino]-4-aminobenzoyl-glycyl-L-glutaminyl-L-tryptophyl-L-alanyl-L-valyl-glycyl-L-histidyl-L-leucyl-L-methioninamide [Compound L204]”?
Answer: receptor subtype preference (GRP-R vs NMB-R) (NMB-R): selective affinity to NMB-R; also recorded: favor the NMB subtype; receptor preference in words (GRP-R / GRP-R and NMB-R) (NMB-R; wrapped cell: 'No selective preference' or 'preference for NMB-R'): preference for NMB-R

Question: “N-[(3β,5β,12α)-3-[[[4,7,10-Tris(carboxymethyl)-1,4,7,10-tetraazacyclododec-1-yl]acetyl]amino]-glycyl-4-aminobenzoyl-L-glutaminyl-L-tryptophyl-L-alanyl-L-valyl-glycyl-L-histidyl-L-phenylalanyl-L-methioninamide [Compound L228]” was tested. Which “competition at the GRP-R” value (GRP-R) did it give?
Answer: The value was “maintains GRP-R activity”.

Question: For “N-[(3β,5β,12α)-3-[[[4,7,10-Tris(carboxymethyl)-1,4,7,10-tetraazacyclododec-1-yl]acetyl]amino]-glycyl-4-aminobenzoyl-L-leucyl-L-tryptophyl-L-alanyl-L-threonyll-glycyl-L-histidyl-L-phenylalanyl-L-methioninamide [Compound L227]”, which “receptor subtype preference (GRP-R vs NMB-R)” value (NMB-R) is on record?
Answer: Its value is “affinity to GRP-R in addition to its inherent NMB-R affinity”.

Question: With anastrozole as the substance, how does the “decrease in 177Lu-AMBA binding (GRP receptor specific signal per cell)” value ([1]; T-47D) read?
Answer: Its value is “up to 10%”.

Question: What about the “decrease in 177Lu-AMBA binding (GRP receptor specific signal per cell)” value ([2]; PC-3) of the same substance?
Answer: Its value is “up to 10%”.

Question: And the “change in GRP receptor specific signal per cell (177Lu-AMBA binding)” value (“change … per cell (177Lu-AMBA binding)” below) ([3]; BT-474)?
Answer: Its value is “no change”.

Question: What about the “change in 177Lu-AMBA uptake (GRP-R) on a viable cell basis, BT-474” value (shortened to “change in 177Lu-AMBA uptake (GRP-R) … BT-474”) ([3]; drug 0.1-1.0 μM) of the same substance?
Answer: Its value is “NC (NC: Little(<10%) or no change in Lu-AMBA uptake)”.

Question: For bortezomib, which “decrease in 177Lu-AMBA binding (GRP receptor specific signal per cell)” value ([1]; T-47D) is on record?
Answer: The value was “up to 50%”.

Question: What about the “decrease in 177Lu-AMBA binding (GRP receptor specific signal per cell)” value ([2]; PC-3) of the same substance?
Answer: The value was “up to 60%”.

Question: What about the “decrease in 177Lu-AMBA binding (GRP receptor specific signal per cell)” value [3, 5] of the same substance?
Answer: The value was “up to 50%”.

Question: How did the “increase in 177Lu-AMBA binding (GRP receptor specific signal per cell)” value ([1]; T-47D) turn out when dasatinib was run?
Answer: The value was “up to 500%”.

Question: What about the “increase in 177Lu-AMBA binding (GRP receptor specific signal per cell)” value ([2]; PC-3, drug 0.1-1.0 μM) of the same substance?
Answer: The value was “up to 250%”.

Question: What about the “decrease in 177Lu-AMBA binding (GRP receptor specific signal per cell)” value [3, 5] of the same substance?
Answer: Its value is 10-15%.

Question: And the “% Change in 2-NBDG uptake” value ([4]; Dasatinib 1 nM)?
Answer: Its value is −4.3 (±4.6) %.

Question: And the “% change in 177Lu-AMBA uptake” value ([4]; Dasatinib 1 nM)?
Answer: The value was 12.3 (±5.8) %.

Question: What about the “% Change in Proliferation” value ([4]; Dasatinib 1 nM) of the same substance?
Answer: The value was −4.3 (±1.0) %.

Question: And the “177Lu-AMBA uptake (Bmax fmoles/million cells)” value ([4]; Dasatinib 1 nM)?
Answer: The value was 300 (±40) fmoles/million cells.

Question: What about the “% Change in 2-NBDG uptake” value ([4]; Dasatinib 10 nM) of the same substance?
Answer: Its value is −62.9 (±7.1) %.

Question: What about the “% change in 177Lu-AMBA uptake” value ([4]; Dasatinib 10 nM) of the same substance?
Answer: The value was 45.4 (±8.1) %.

Question: And the “% Change in Proliferation” value ([4]; Dasatinib 10 nM)?
Answer: Its value is −11.2 (±5.9) %.

Question: What about the “177Lu-AMBA uptake (Bmax fmoles/million cells)” value ([4]; Dasatinib 10 nM) of the same substance?
Answer: The value was 387 (±46) fmoles/million cells.

Question: What about the “% Change in 2-NBDG uptake” value ([4]; Dasatinib 100 nM) of the same substance?
Answer: The value was −67.8 (±15.8) %.

Question: What about the “% change in 177Lu-AMBA uptake” value ([4]; Dasatinib 100 nM) of the same substance?
Answer: Its value is 76.7 (±5.0) %.

Question: And the “% Change in Proliferation” value ([4]; Dasatinib 100 nM)?
Answer: Its value is −33.3 (±11.4) %.

Question: And the “177Lu-AMBA uptake (Bmax fmoles/million cells)” value ([4]; Dasatinib 100 nM)?
Answer: Its value is 470 (±51) fmoles/million cells.

Question: And the “177Lu-AMBA uptake, average Bmax” value ([4]; PC-3, 100 nM)?
Answer: Its value is at most 470 fmoles/million cells.

Question: What about the “decrease of glucose uptake (2-NBDG)” value ([4]; PC-3, 100 nM) of the same substance?
Answer: The value was at most 67.8%.

Question: And the “inhibition of growth (cell proliferation)” value ([4]; PC-3, 100 nM)?
Answer: Its value is at most 33%.

Question: Which “increase in 177Lu-AMBA binding (GRP receptor specific signal per cell)” value ([1]; T-47D) does the source give for erlotinib here?
Answer: The value was 5-20%.

Question: What about the “decrease in 177Lu-AMBA binding (GRP receptor specific signal per cell)” value ([2]; PC-3) of the same substance?
Answer: Its value is 5-20%.

Question: What about the “change … per cell (177Lu-AMBA binding)” value ([3]; BT-474) of the same substance?
Answer: The value was “no change”.

Question: And the “change in 177Lu-AMBA uptake (GRP-R) … BT-474” value ([3]; drug 0.1-1.0 μM)?
Answer: Its value is “NC (NC: Little(<10%) or no change in Lu-AMBA uptake)”.

Question: Which results are given for gefitinib?
Answer: increase in 177Lu-AMBA binding (GRP receptor specific signal per cell) ([1]; T-47D): up to 20%; decrease in 177Lu-AMBA binding (GRP receptor specific signal per cell) ([2]; PC-3): 20-40%; change in GRP receptor specific signal per cell (177Lu-AMBA binding) ([3]; BT-474): no change; change in 177Lu-AMBA uptake (GRP-R) on a viable cell basis, BT-474 ([3]; drug 0.1-10 μM): NC (NC: Little(<10%) or no change in Lu-AMBA uptake)

Question: Which “increase in 177Lu-AMBA binding (GRP receptor specific signal per cell)” value ([1]; T-47D) does the source give for imatinib here?
Answer: The value was “up to 15%”.

Question: And the “decrease in 177Lu-AMBA binding (GRP receptor specific signal per cell)” value ([2]; PC-3)?
Answer: The value was 15-25%.

Question: And the “change … per cell (177Lu-AMBA binding)” value ([3]; BT-474)?
Answer: The value was “no change”.

Question: And the “change in 177Lu-AMBA uptake (GRP-R) … BT-474” value ([3]; drug 0.1-1.0 μM)?
Answer: Its value is “NC (NC: Little(<10%) or no change in Lu-AMBA uptake)”.

Question: Which results are given for lapatinib?
Answer: decrease in cell proliferation ([1]; T-47D, highest concentration): ≤ 35%; increase in 177Lu-AMBA binding (GRP receptor specific signal per cell) ([1]; T-47D): up to 50%; change in proliferation ([2]; PC-3, 0.1-1.0 μM): no change; change in GRP receptor specific signal per cell (177Lu-AMBA binding) ([2]; PC-3, drug 0.1-1.0 μM (4-OH Tamoxifen 0.001-0.1 μM)): no change; change in 177Lu-AMBA uptake (GRP-R) on a viable cell basis, PC-3 [2, 6]: NC (NC: Little(<10%) or no change in Lu-AMBA uptake); decrease in cell proliferation ([3]; BT-474, highest concentration): ≤ 65%; increase in 177Lu-AMBA binding (GRP receptor specific signal per cell) ([3]; BT-474, relative to untreated control, drug 0.1-1.0 μM (β2-estradiol 1 nM)): up to 140%

Question: Which “change … per cell (177Lu-AMBA binding)” value ([1]; T-47D) does the source give for sorafenib here?
Answer: The value was “no change”.

Question: What about the “change in 177Lu-AMBA uptake (GRP-R) on a viable cell basis, T47D” value [1, 6] of the same substance?
Answer: Its value is “NC (NC: Little(<10%) or no change in Lu-AMBA uptake)”.

Question: What about the “decrease in 177Lu-AMBA binding (GRP receptor specific signal per cell)” value ([2]; PC-3) of the same substance?
Answer: The value was 10-20%.

Question: And the “decrease in 177Lu-AMBA binding (GRP receptor specific signal per cell)” value [3, 5]?
Answer: The value was 10-25%.

Question: Which results are given for sunitinib?
Answer: increase in 177Lu-AMBA binding (GRP receptor specific signal per cell) ([1]; T-47D): up to 13%; increase in 177Lu-AMBA binding (GRP receptor specific signal per cell) ([2]; PC-3, drug 0.1-1.0 μM): up to 10%; decrease in 177Lu-AMBA binding (GRP receptor specific signal per cell) [3, 5]: up to 8%
